Data: patent US11952586B2, “B-cell cultivation method” (Hoffmann-La Roche Inc., priority 2017, dated 2024)

Columns and labels:
single deposited B-cells = assay: co-cultivation of single deposited B-cells with EL-4 B5 cells; antigen binding immunoassay (HSA); format: cell-based, rabbit
Procedure: Single cell sorted B-cells were cultured in 96-well plates with 200 μl/well EL-4 B5 medium with Pansorbin Cells (SAC) (Calbiochem (Merck), Darmstadt, Deutschland), EL-4 B5 cells (0-5×10^4/well) and rabbit thymocyte supernatant or cytokine mix, respectively, for 7 days at 37° C. in an atmosphere of 5% CO2 in the incubator. B-cell culture supernatants were removed for screening and the cells harvested immediately for variable region gene cloning or frozen at −80° C. in 100 μl RLT buffer (Qiagen, Hilden, Germany).
The assay was performed at room temperature (RT) on 384-well MaxiSorp microtiter plates (Thermo Scientific) with PBS (phosphate buffered saline) buffer supplemented with 0.5% Gelatin and 0.025% Tween®-20. The plates were coated with 0.5 μg/ml of human serum albumin (HSA, Sigma-Aldrich) for at least 2 hours to overnight. After washing (3×) with PBST (PBS with 0.1% Tween®-20) buffer the wells were blocked with PBS with 0.5% Gelatin and 0.1% Tween®-20. Again, the plates were washed three-times and afterwards dilutions of B-cell supernatants were added. After an incubation of 60 min and 3 washing steps with PBST a 1:4,000 dilution of a HRP-conjugated anti-rabbit IgG antibody (Amersham) was transferred to the wells and incubated for 60 min. Finally, the plates were repeatedly washed (6×) with PBST and developed with BM Blue® HRP substrate solution for 30 min. Absorbance was measured at 392-405 nm.

EL-4 B5 cells = assay: vitality of irradiated EL-4 B5 cells in presence of PMA; format: cell-based, murine
From the text: Different PMA concentrations in combination with single deposited cells of a non-immunized animal have been tested.

[1] = PMA 0.048 ng/ml, 3 Gy, 15k/Well
[2] = PMA 0.048 ng/ml, 4 Gy, 20k/Well
[3] = PMA 0.048 ng/ml, 5 Gy, 20k/Well
[4] = PMA 0.048 ng/ml, 8 Gy, 20k/Well
[5] = PMA 0.048 ng/ml, 50 Gy, 50k/Well
[6] = PMA 0.109 ng/ml, 3 Gy, 15k/Well
[7] = PMA 0.109 ng/ml, 4 Gy, 20k/Well
[8] = PMA 0.109 ng/ml, 5 Gy, 20k/Well
[9] = PMA 0.109 ng/ml, 8 Gy, 20k/Well
[10] = PMA 0.109 ng/ml, 50 Gy, 50k/Well
[11] = PMA 0.25 ng/ml, 50 Gy, 50k/Well
[12] = PMA 0.57 ng/ml, 50 Gy, 50k/Well
[13] = PMA 1.3 ng/ml, 3 Gy, 15k/Well, HSA immunized rabbit

For `CCCCCCCCCCCCCC(=O)O[C@@H]1[C@@H](C)[C@@]2(O)[C@@H](C=C(CO)C[C@]3(O)C(=O)C(C)=C[C@@H]23)[C@@H]2C(C)(C)[C@]12OC(C)=O` [PMA, phorbol-12-myristate-13-acetate], which “HSA (absolute corrected) Freq./plate OD>c” value (single deposited B-cells; [1]) is on record?
The value was 25 % total.

What about the “HSA (absolute corrected) Freq./plate OD>c and rbIgG+” value (single deposited B-cells; [1]) of the same compound?
The value was 48.8 % IgG.

And the “HSA (absolute corrected) Freq./plate OD>c” value (single deposited B-cells; [2])?
Its value is 36.9 % total.

What about the “HSA (absolute corrected) Freq./plate OD>c and rbIgG+” value (single deposited B-cells; [2]) of the same compound?
Its value is 50 % IgG.

What about the “HSA (absolute corrected) Freq./plate OD>c” value (single deposited B-cells; [3]) of the same compound?
Its value is 27.4 % total.

And the “HSA (absolute corrected) Freq./plate OD>c and rbIgG+” value (single deposited B-cells; [3])?
The value was 38.3 % IgG.

What about the “HSA (absolute corrected) Freq./plate OD>c” value (single deposited B-cells; [4]) of the same compound?
The value was 42.9 % total.

What about the “HSA (absolute corrected) Freq./plate OD>c and rbIgG+” value (single deposited B-cells; [4]) of the same compound?
The value was 49.3 % IgG.

What about the “HSA (absolute corrected) Freq./plate OD>c” value (single deposited B-cells; [5]) of the same compound?
The value was 14.3 % total.

What about the “HSA (absolute corrected) Freq./plate OD>c and rbIgG+” value (single deposited B-cells; [5]) of the same compound?
The value was 58.3 % IgG.

What about the “HSA (absolute corrected) Freq./plate OD>c” value (single deposited B-cells; [6]) of the same compound?
Its value is 9.5 % total.

And the “HSA (absolute corrected) Freq./plate OD>c and rbIgG+” value (single deposited B-cells; [6])?
The value was 17.5 % IgG.

What about the “HSA (absolute corrected) Freq./plate OD>c” value (single deposited B-cells; [7]) of the same compound?
Its value is 32.1 % total.

And the “HSA (absolute corrected) Freq./plate OD>c and rbIgG+” value (single deposited B-cells; [7])?
Its value is 42.2 % IgG.

What about the “HSA (absolute corrected) Freq./plate OD>c” value (single deposited B-cells; [8]) of the same compound?
The value was 42.9 % total.

What about the “HSA (absolute corrected) Freq./plate OD>c and rbIgG+” value (single deposited B-cells; [8]) of the same compound?
The value was 47.1 % IgG.

And the “HSA (absolute corrected) Freq./plate OD>c” value (single deposited B-cells; [9])?
The value was 32.1 % total.

And the “HSA (absolute corrected) Freq./plate OD>c and rbIgG+” value (single deposited B-cells; [9])?
Its value is 41.5 % IgG.

And the “HSA (absolute corrected) Freq./plate OD>c” value (single deposited B-cells; [10])?
Its value is 9.5 % total.

What about the “HSA (absolute corrected) Freq./plate OD>c and rbIgG+” value (single deposited B-cells; [10]) of the same compound?
The value was 50 % IgG.

What about the “HSA (absolute corrected) Freq./plate OD>c” value (single deposited B-cells; PMA 0.25 ng/ml, 3 Gy, 15k/Well) of the same compound?
The value was 21.4 % total.

And the “HSA (absolute corrected) Freq./plate OD>c and rbIgG+” value (single deposited B-cells; PMA 0.25 ng/ml, 3 Gy, 15k/Well)?
The value was 45 % IgG.

And the “HSA (absolute corrected) Freq./plate OD>c” value (single deposited B-cells; PMA 0.25 ng/ml, 4 Gy, 20k/Well)?
The value was 33.3 % total.

And the “HSA (absolute corrected) Freq./plate OD>c and rbIgG+” value (single deposited B-cells; PMA 0.25 ng/ml, 4 Gy, 20k/Well)?
The value was 44.4 % IgG.

And the “HSA (absolute corrected) Freq./plate OD>c” value (single deposited B-cells; PMA 0.25 ng/ml, 5 Gy, 20k/Well)?
The value was 32.1 % total.

What about the “HSA (absolute corrected) Freq./plate OD>c and rbIgG+” value (single deposited B-cells; PMA 0.25 ng/ml, 5 Gy, 20k/Well) of the same compound?
The value was 38 % IgG.

What about the “HSA (absolute corrected) Freq./plate OD>c” value (single deposited B-cells; PMA 0.25 ng/ml, 8 Gy, 20k/Well) of the same compound?
The value was 32.1 % total.

And the “HSA (absolute corrected) Freq./plate OD>c and rbIgG+” value (single deposited B-cells; PMA 0.25 ng/ml, 8 Gy, 20k/Well)?
Its value is 36.5 % IgG.

What about the “HSA (absolute corrected) Freq./plate OD>c” value (single deposited B-cells; [11]) of the same compound?
Its value is 13.1 % total.

What about the “HSA (absolute corrected) Freq./plate OD>c and rbIgG+” value (single deposited B-cells; [11]) of the same compound?
The value was 47.1 % IgG.

And the “HSA (absolute corrected) Freq./plate OD>c” value (single deposited B-cells; PMA 0.57 ng/ml, 3 Gy, 15k/Well)?
The value was 11.9 % total.

And the “HSA (absolute corrected) Freq./plate OD>c and rbIgG+” value (single deposited B-cells; PMA 0.57 ng/ml, 3 Gy, 15k/Well)?
Its value is 33.3 % IgG.

And the “HSA (absolute corrected) Freq./plate OD>c” value (single deposited B-cells; PMA 0.57 ng/ml, 4 Gy, 20k/Well)?
Its value is 26.2 % total.

And the “HSA (absolute corrected) Freq./plate OD>c and rbIgG+” value (single deposited B-cells; PMA 0.57 ng/ml, 4 Gy, 20k/Well)?
The value was 36.1 % IgG.

What about the “HSA (absolute corrected) Freq./plate OD>c” value (single deposited B-cells; PMA 0.57 ng/ml, 5 Gy, 20k/Well) of the same compound?
The value was 38.1 % total.

And the “HSA (absolute corrected) Freq./plate OD>c and rbIgG+” value (single deposited B-cells; PMA 0.57 ng/ml, 5 Gy, 20k/Well)?
Its value is 43.8 % IgG.

And the “HSA (absolute corrected) Freq./plate OD>c” value (single deposited B-cells; PMA 0.57 ng/ml, 8 Gy, 20k/Well)?
Its value is 35.7 % total.

What about the “HSA (absolute corrected) Freq./plate OD>c and rbIgG+” value (single deposited B-cells; PMA 0.57 ng/ml, 8 Gy, 20k/Well) of the same compound?
Its value is 44.1 % IgG.

What about the “HSA (absolute corrected) Freq./plate OD>c” value (single deposited B-cells; [12]) of the same compound?
Its value is 40.5 % total.

What about the “HSA (absolute corrected) Freq./plate OD>c and rbIgG+” value (single deposited B-cells; [12]) of the same compound?
The value was 46.5 % IgG.

What about the “HSA (absolute corrected) Freq./plate OD>c” value (single deposited B-cells; [13]) of the same compound?
The value was 3.6 % total.

And the “HSA (absolute corrected) Freq./plate OD>c and rbIgG+” value (single deposited B-cells; [13])?
The value was 42.9 % IgG.

What about the “HSA (absolute corrected) Freq./plate OD>c” value (single deposited B-cells; PMA 1.3 ng/ml, 4 Gy, 20k/Well) of the same compound?
The value was 31 % total.

What about the “HSA (absolute corrected) Freq./plate OD>c and rbIgG+” value (single deposited B-cells; PMA 1.3 ng/ml, 4 Gy, 20k/Well) of the same compound?
Its value is 42.6 % IgG.

What about the “HSA (absolute corrected) Freq./plate OD>c” value (single deposited B-cells; PMA 1.3 ng/ml, 5 Gy, 20k/Well) of the same compound?
The value was 34.5 % total.

And the “HSA (absolute corrected) Freq./plate OD>c and rbIgG+” value (single deposited B-cells; PMA 1.3 ng/ml, 5 Gy, 20k/Well)?
Its value is 40.8 % IgG.

And the “HSA (absolute corrected) Freq./plate OD>c” value (single deposited B-cells; PMA 1.3 ng/ml, 8 Gy, 20k/Well)?
The value was 36.9 % total.

What about the “HSA (absolute corrected) Freq./plate OD>c and rbIgG+” value (single deposited B-cells; PMA 1.3 ng/ml, 8 Gy, 20k/Well) of the same compound?
The value was 40.5 % IgG.

What about the “HSA (absolute corrected) Freq./plate OD>c” value (single deposited B-cells; PMA 1.3 ng/ml, 50 Gy, 50k/Well) of the same compound?
The value was 40.5 % total.

What about the “HSA (absolute corrected) Freq./plate OD>c and rbIgG+” value (single deposited B-cells; PMA 1.3 ng/ml, 50 Gy, 50k/Well) of the same compound?
The value was 47.1 % IgG.

What about the Vitality (EL-4 B5 cells; c(PMA) 0.03 ng/ml, 4 Gy) of the same compound?
Its Vitality is 54.8%.

What about the Vitality (EL-4 B5 cells; c(PMA) 0.03 ng/ml, 50 Gy) of the same compound?
The Vitality was 3.9%.

What about the Vitality (EL-4 B5 cells; c(PMA) 0.06 ng/ml, 4 Gy) of the same compound?
The Vitality was 45.4%.

And the Vitality (EL-4 B5 cells; c(PMA) 0.125 ng/ml, 4 Gy)?
The Vitality was 39.8%.

What about the Vitality (EL-4 B5 cells; c(PMA) 0.25 ng/ml, 4 Gy) of the same compound?
The Vitality was 34%.

And the Vitality (EL-4 B5 cells; c(PMA) 0.25 ng/ml, 50 Gy)?
The Vitality was 9.5%.

And the Vitality (EL-4 B5 cells; c(PMA) 0.5 ng/ml, 4 Gy)?
Its Vitality is 32.2%.

And the Vitality (EL-4 B5 cells; c(PMA) 1.3 ng/ml, 4 Gy)?
Its Vitality is 19.2%.

What about the Vitality (EL-4 B5 cells; c(PMA) 1.3 ng/ml, 50 Gy) of the same compound?
Its Vitality is 17.4%.
